Measured values: US20230183388A1, “EXOPOLY[…] LACTIC ACID BACTERIUM AND USE THEREOF” (Asahi Kohsan Corporation, priority 2017, published 2023)

Biological target: T1, hyaluronidase (Bos taurus, UniProt Q2YDK3)
T1 sequence (Q2YDK3 36-553): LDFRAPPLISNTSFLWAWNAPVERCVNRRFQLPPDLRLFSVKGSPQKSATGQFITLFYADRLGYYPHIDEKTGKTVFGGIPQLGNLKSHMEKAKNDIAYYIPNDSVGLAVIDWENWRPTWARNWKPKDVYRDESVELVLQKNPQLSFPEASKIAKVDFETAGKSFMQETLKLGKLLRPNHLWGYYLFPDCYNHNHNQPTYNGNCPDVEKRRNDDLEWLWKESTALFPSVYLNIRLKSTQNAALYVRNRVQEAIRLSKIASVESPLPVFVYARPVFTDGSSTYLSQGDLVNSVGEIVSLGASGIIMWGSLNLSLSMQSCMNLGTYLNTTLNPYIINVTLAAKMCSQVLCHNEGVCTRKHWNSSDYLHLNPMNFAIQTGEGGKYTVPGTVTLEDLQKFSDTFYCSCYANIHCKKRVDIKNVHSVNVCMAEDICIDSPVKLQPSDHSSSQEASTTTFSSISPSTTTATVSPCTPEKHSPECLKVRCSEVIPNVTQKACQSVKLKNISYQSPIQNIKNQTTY
Assay: Hyaluronidase activity inhibition of exopolysaccharides
Type: biochemical
Conditions: hyaluronidase enzyme solution (MP Biomedicals), activated with Compound 48/80 and CaCl2, sodium hyaluronate substrate, pH 4.0, 37° C.
Experimental: 5 μL of a hyaluronidase enzyme solution (MP Biomedicals, 4 mg/mL, 100 mM sodium acetate buffer (pH 4.0)) was added to 10 μL of an aqueous solution containing polysaccharides at an optional concentration, which was prepared from the polysaccharide sample containing the neutral polysaccharide fractions and the acidic polysaccharide fractions, the neutral polysaccharide fractions, and the acidic polysaccharide fractions, which were exopolysaccharides produced by the strain IJH-SONE68 and obtained in Example 4. The resultant mixture was incubated at 37° C. for 20 minutes. Thereafter, to the mixture, 10 μL of an enzyme-activating solution (0.5 mg/ml Compound 48/80 (manufactured by MP Biomedicals)), 3.75 mg CaCl2·2H2O, and 100 mM sodium acetate buffer (pH 4.0)) were added, and incubated again at 37° C. for 20 minutes. Subsequently, to the resultant mixture, 25 μL of a sodium hyaluronate solution (Wako Pure Chemical Industries, 0.8 mg/mL, 100 mM sodium acetate buffer (pH 4.0)) was added, and further reacted at 37° C. for 40 minutes. After the reaction, the reaction was terminated by adding 10 μL of 0.4 M NaOH aqueous solution. […] 40 μL of the reaction solution was mixed with 200 μL of p-DMAB solution (described below), the mixture was reacted at 37° C. for 20 minutes, and the absorbance at 585 nm was then measured. […]

CC1(C)[C@@H](O[C@H]2O[C@H](C(=O)[O-])[C@@H](O)[C@H](O)[C@H]2O[C@@H]2O[C@H](C(=O)[O-])[C@@H](O)[C@H](O)[C@H]2O)CC[C@]2(C)[C@H]3C(=O)C=C4[C@@H]5C[C@@](C)(C(=O)O)CC[C@]5(C)CC[C@@]4(C)[C@]3(C)CC[C@@H]12.[K+].[K+] [Dipotassium glycyrrhizinate]
IC50 (hyaluronidase activity inhibition): 530 µg/mL
